Laboratory results: patent US4666907A, “Phenothiazine and derivatives and analogs and use as leukotriene biosynthesis inhibitors” (Merck Frosst Canada, Inc., priority 1986, dated 1987)

How the values were obtained:
asthmatic rats = test: Asthmatic rat assay (duration of dyspnoea after egg albumin aerosol); assay type: in vivo; conditions: po; for inhibition in vivo at 3 mg/kg: 3 mg/kg p.o.
Excerpt: Rats were obtained from an inbred line of asthmatic rats. Both female and male rats from 200 to 300 g were used.
Egg albumin (EA), grade V, crystallized and lyophilized, was obtained from Sigma Chemical Co., St. Louis. Bordetella pertussis vaccine, containing 30×10^9 killed bacteria per ml was obtained from the Institut Armand-Frappier, Laval des Rapides, Quebec. Aluminum hydroxide was obtained from the Regeis Chemical Company, Chicago.
The challenge and subsequent respiratory recordings were carried out in a clear plastic box with internal dimensions 10×6×4 inches. The top of the box was removable; in use, it was held firmly in place by four clamps and an airtight seal was maintained by a soft rubber gasket. […] A Fleisch No. 0000 pneumotachograph was inserted into one end of the box and coupled to a Grass volumetric pressure transducer (PT5-A) which was then connected to a Beckman Type R Dynograph through appropriate couplers. While aerosilizing the antigen, the outlets were open and the pneumotachograph was isolated from the chamber. The outlets were closed and the pneumotachograph and the chamber were connected during the recording or the respiratory patterns. For challenge, 2 ml of a 3% solution of antigen in saline was placed into each nebulizer and the aerosol was generated with air from a small Potter diaphragm pump operating at 10 psi and a flow of 8 liters/minutes.
Rats were sensitized by injection (s.c.) 1 ml of a suspension containing 1 mg EA and 200 mg aluminum hydroxide in saline. Simultaneously, they received an injection (i.p.) of 0.5 ml of B. pertussis vaccine. They were used between days 14 and 18 postsensitization. In order to eliminate the serotonin component of the response, rats were pretreated intravenously 5 minutes prior to aerosol challenge with […] methylserzide. Rats were then exposed to an aerosol of 3% EA in saline for exactly 1 minute, then their respiratory profiles were recorded for a further 25-30 minutes. The duration of continuous dyspnoea was measured from the respiratory recordings.
Compounds were generally administered either intraperitoneally 1 hour prior to challenge or orally 11/2 hours prior to challenge. They were either dissolved in dimethylsulfoxide or suspended in 0.1% methocel and 0.5% Tween 80. The volume injected has 2 ml kg^-1 (intraperitoneally) or 10 ml kg^-1 (orally). Prior to oral treatment rats were starved overnight. Their activity was determined in terms of their ability to decrease the duration of symptoms of dyspnoea in comparison with a group of vehicle-treated controls. Usually, a compound was evaluated at a series of doses and an ED50 was determined. This was defined as the dose (mg/kg) which would inhibit the duration of symptoms by 50%.

[1] = test system: PAF-induced hyperalgesia in Sprague-Dawley rats; test: PAF-induced hyperalgesia assay (vocalization threshold, rat paw); assay type: in vivo; conditions: po, read-out: PAF Induced Hyperalgesia Assay % inhibition; for responders at 1 mg/kg: 1 mg/kg p.o.; for responders at 3 mg/kg: 3 mg/kg p.o.
Method: Female Sprague-Dawley rats, 35-40 g were fasted overnight. Platelet activating factor, PAF, (L-lecithin B-acetyl O-alkyl) 1 μg/0.1 ml was given by subplantar injection in the rat paw. The compounds to be evaluated were homogenized in aqueous Vehicle (0.9% benzyl alcohol, 0.5% Tween 80 and 0.4% methylcellulose) and administered orally in a volume of 0.1 ml, 30 minutes prior to PAF.
Animals were tested 1, 2, 3 and 4 hours after PAF administration. The vocalization threshold, defined as the pressure (mm Hg) needed to evoke a squeak response, was recorded for both the injected and contralateral paw. No animal was subjected to pressure greater than 60 mm Hg. Hyperalgesia is defined as a decrease in vocalization threshold as compared to a normal paw. Percent inhibition of hyperalgesia was calculated as the proportion of animals with vocalization thresholds greater than 200% of controls.

COc1ccc2c(c1)Sc1cc(C)ccc1N2C
inhibition in vivo at 3 mg/kg (asthmatic rats): 58%
responders at 1 mg/kg [1]: 30%

COc1ccc2c(c1)Sc1c(cc(OC)c(O)c1Br)N2C(=O)OC(C)OC(C)=O (stereo not drawn)
inhibition in vivo at 5 mg/kg (asthmatic rats; 5.0 mg/kg p.o.): 42%
responders at 3 mg/kg [1]: 60%

c1ccc2c(c1)Nc1ccccc1S2 [drawing 61]
inhibition in vivo at 0.5 mg/kg (asthmatic rats; 0.5 mg/kg p.o.): 53%
responders at 3 mg/kg [1]: 50%

COc1ccc2c(c1Cl)Sc1ccccc1N2C [drawing 64]
inhibition in vivo at 0.2 mg/kg (asthmatic rats; 0.2 mg/kg p.o.): 50%
responders at 0.016 mg/kg ([1]; 0.016 mg/kg p.o.): 50%

CC(C)C(=O)Oc1ccc2c(c1Cl)Sc1ccccc1N2C [drawing 66]
inhibition in vivo at 3 mg/kg (asthmatic rats): 35%
responders at 1 mg/kg [1]: 70%

COc1ccc2c(c1Cl)Sc1ccccc1N2C(C)=O [drawing 70]
inhibition in vivo at 1.5 mg/kg (asthmatic rats; 1.5 mg/kg p.o.): 59%
responders at 0.01 mg/kg ([1]; 0.01 mg/kg p.o.): 50%
